Reference: patent US9554987B2, “Methods and formulations for treating sialic acid deficiencies” (ULTRAGENYX PHARMACEUTICAL INC., priority 2010, dated 2017)

Columns and labels:
[1] = system: canine; experiment: Canine chronic toxicology study; format: in vivo, dog; details: very highest 2,000 mg/kg dose level
[2] = system: male beagle dogs; experiment: Clinical signs and body weight in the single dose dog study (Example 5); format: in vivo, beagle dog (Canis familiaris); details: study period
Source text: Before dosing initiation, all animals were weighed and assigned to treatment groups. At the start of treatment, animals were 7-16 months of age and ranged in weight as 6.4 to 9.4 kg. Animals were housed individually in stainless steel cages equipped with a mesh-type floor and an automatic watering valve. A standard certified pelleted commercial dog food (approximately 400 g of Certified Canine Diet 5C07, PMI Nutrition International, Inc.) was provided to each animal once daily, except during designated procedures. Maximum allowable concentrations of contaminants in the diet (e.g., heavy metals, aflatoxin, organophosphates, chlorinated hydrocarbons, PCBs) were controlled and routinely analyzed by the manufacturers. It was considered that there were no known contaminants in the food that could have interfered with the objectives of the study. Municipal tap water, which was softened, purified by reverse osmosis and exposed to ultraviolet light, was freely available except during designated procedures. It was considered that there were no known contaminants in the water that could have interfered with the objectives of the study. Each Animal was provided with a floor toy, except during designated activities.
Individual body weights were measured once during the predose period and prior to each dose on dosing days.

CC(=O)N[C@H]1[C@H]([C@H](O)[C@H](O)CO)OC(O)(C(=O)O)C[C@@H]1O (stereo partly drawn) [sialic acid, 5-N-acetylneuraminic acid]
finding in canine chronic toxicology study [1]: loosening of stools
treatment-related clinical signs ([2]; oral or intravenous administration): no treatment-related clinical signs
body weight or body weight gains [2]: no treatment related changes in body weight or body weight gains
